Reference: patent publication US11746116B2, “Antibiotic resistance breakers” (KING'S COLLEGE LONDON, priority 2017, dated 2023)
Converted amounts (≈) assume the structure as drawn.

Legend:
VSE775 = assay: MIC, microdilution broth method; format: cell-based, Enterococcus faecalis; design: MIC, VSE775: unit not given beside the values; conditions: for MIC: VSE775, in µg/mL
PA01 = assay: MIC, microdilution broth method; format: cell-based, Pseudomonas aeruginosa; conditions: in µg/mL; for MIC: PA01
PA13437 = assay: MIC, microdilution broth method; format: cell-based; conditions: for MIC: PA13437
EMRSA16 = assay: MIC, microdilution broth method; format: cell-based, Staphylococcus aureus; conditions: in µg/mL; for MIC: EMRSA16
KP13368 = assay: MIC, microdilution broth method; format: cell-based; conditions: for MIC: KP13368, in µg/mL
EMRSA15 = assay: MIC, microdilution broth method; format: cell-based, Staphylococcus aureus; conditions: in µg/mL; for MIC: EMRSA15
VRE12204 = assay: MIC, microdilution broth method; format: cell-based, Enterococcus faecium; conditions: in µg/mL; for MIC: VRE12204
VRE12201 = assay: MIC, microdilution broth method; format: cell-based, Enterococcus faecalis; conditions: in µg/mL; for MIC: VRE12201
EC12923 = assay: MIC, microdilution broth method; format: cell-based; conditions: ESKAPE panel, Gram-negative; in µg/mL
AYE = assay: MIC, microdilution broth method; format: cell-based, Acinetobacter baumannii; conditions: in µg/mL; for MIC: AYE
Ab17978 = assay: MIC, microdilution broth method; format: cell-based; conditions: for MIC: Ab17978
M6 = assay: MIC, microdilution broth method; format: cell-based; conditions: in µg/mL; for MIC: M6
MSSA9144 = assay: MIC, microdilution broth method; format: cell-based, Staphylococcus aureus; conditions: in µg/mL; for MIC: MSSA9144
SA7 = assay: MIC, extended Gram-positive panel; format: cell-based, S. aureus; conditions: S. aureus SA7; gyrA, 84:S => L; grlA, 80:S => F
SA3 = format: cell-based, S. aureus; conditions: S. aureus SA3; gyrA, 84:S => L; grlA, 80:S => F
EF2 = assay: MIC, extended Gram-positive panel; format: cell-based, E.faecium; conditions: E.faecium EF2; in µg/mL
SA8 = assay: MIC, extended Gram-positive panel; format: cell-based, S. aureus; conditions: S. aureus SA8; gyrA, 84:S => L; grlA, 80:S => F
SH1 = assay: MIC, extended Gram-positive panel; format: cell-based, S. haemolyticus; conditions: S. haemolyticus SH1
SA2 = assay: MIC, extended Gram-positive panel; format: cell-based, S. aureus; conditions: S. aureus SA2
SA9 = format: cell-based, S. aureus; conditions: S. aureus SA9; gyrA, 84:S => L; grlA, 80:S => F
EF1 = assay: MIC, extended Gram-positive panel; format: cell-based, E.faecalis; conditions: E.faecalis EF1
SA4 = assay: MIC, extended Gram-positive panel; format: cell-based, S. aureus; conditions: S. aureus SA4; gyrA, 84:S => L; grlA, 80:S => F
SA5 = format: cell-based, S. aureus; conditions: S. aureus SA5; gyrA, 84:S => L; grlA, 80:S => F
SE1 = format: cell-based, S. epidermidis; conditions: S. epidermidis SE1; in µg/mL
SA6 = assay: MIC, extended Gram-positive panel; format: cell-based, S. aureus; conditions: S. aureus SA6; gyrA, 84:S => V; grlA, 80:S => F
SA1 = assay: MIC, extended Gram-positive panel; format: cell-based, S. aureus; conditions: S. aureus SA1; gyrA, 84:S => L; grlA, 80:S => F

Row | Structure (SMILES) | MIC (PA01; +PMBN) | MIC (PA13437; +PMBN) | MIC (VRE12201) | MIC (SA4) | MIC (Ab17978; Normal (no PMBN), in µg/mL) | MIC (M6; +PMBN) | MIC (M6; Normal (no PMBN)) | MIC (MSSA9144) | MIC (VSE775) | MIC (PA01; Normal (no PMBN)) | MIC (EMRSA16) | MIC (KP13368; Normal (no PMBN)) | MIC (EMRSA15) | MIC (VRE12204) | further results
1 | C[C@H]1COc2c(N3CC[C@@H](N(C)C4CC4)C3)c(F)cc3c(=O)c(C(=O)O)cn1c23 [KSN-L36, (S)-10-((R)-3-(cyclopropyl(methyl)amino)pyrrolidin-1-yl)-9-fluoro-3-methyl-7-oxo-2,3-dihydro-7H-[1,4]oxazino[2,3,4-ij]quinoline-6-carboxylic acid] | – | – | – | – | – | – | – | – | – | – | – | – | – | – | MIC, VSE775 (VSE775; ESKAPE panel, Gram-positive): 4; MIC, PA01 (PA01; ESKAPE panel, Gram-negative): 16; MIC, PA13437 (PA13437; ESKAPE panel, Gram-negative): > 64 µg/mL; MIC, EMRSA16 (EMRSA16; ESKAPE panel, Gram-positive): 32; MIC, KP13368 (KP13368; ESKAPE panel, Gram-negative): 32 µg/mL (≈ 79.7 µM); MIC, EMRSA15 (EMRSA15; ESKAPE panel, Gram-positive): 32; MIC, VRE12204 (VRE12204; ESKAPE panel, Gram-positive): 8; MIC, VRE12201 (VRE12201; ESKAPE panel, Gram-positive): 2; MIC, EC12923 (EC12923): 0.5-1; MIC, AYE (AYE; ESKAPE panel, Gram-negative): 64; MIC, Ab17978 (Ab17978; ESKAPE panel, Gram-negative, in µg/mL): 0.5-1; MIC, M6 (M6; ESKAPE panel, Gram-negative): 2-4; MIC, MSSA9144 (MSSA9144; ESKAPE panel, Gram-positive): 0.25-0.5
2 | O=C(O)c1cn(C2CC2)c2cc(N3CCN(Cc4cccc5ccccc45)CC3)c(F)cc2c1=O [ML-77-005] | <0.12-0.25 | 32 µg/mL (≈ 67.9 µM) | 0.5 | 2 µg/mL (≈ 4.24 µM) | 4 | 0.5 | 32-64 | 0.25-8 | – | – | – | – | – | – | MIC (SA7): 2 µg/mL (≈ 4.24 µM); MIC (SA3): 2 µg/mL (≈ 4.24 µM); MIC (EF2): 2; MIC (SA8): 2 µg/mL (≈ 4.24 µM); MIC (SH1): 4 µg/mL (≈ 8.48 µM); MIC (SA2): 0.5 µg/mL (≈ 1.06 µM); MIC (SA9): 2 µg/mL (≈ 4.24 µM); MIC (EF1): 2 µg/mL (≈ 4.24 µM); MIC (SA5): 2 µg/mL (≈ 4.24 µM); MIC (SE1): 0.25-2; MIC (Ab17978; +PMBN): −.12-0.25; MIC (SA6): 2 µg/mL (≈ 4.24 µM); MIC (SA1): 2 µg/mL (≈ 4.24 µM)
3 | CCn1cc(C(=O)O)c(=O)c2cc(F)c(N3CCN(Cc4cc(=O)[nH]c5ccccc45)CC3)cc21 [ML-77-059] | – | – | >32 | – | 32 | – | 16 | 16-32 | >32 | >32 | >32 | >32 | >32 | >32 | MIC (PA13437; Normal (no PMBN)): > 32 µg/mL; MIC (AYE; Normal (no PMBN)): >32
4 | C[C@H]1COc2c(N3CCN(c4ccncn4)CC3)c(F)cc3c(=O)c(C(=O)O)cn1c23 [ML-83-001, (S)-9-fluoro-3-methyl-7-oxo-10-(4-(pyrimidin-4-yl)piperazin-1-yl)-2,3-dihydro-7H-[1,4]oxazino[2,3,4-ij]quinoline-6-carboxylic acid] | 1 | 32 µg/mL (≈ 75.2 µM) | 0.25 | – | 4 | 0.5 | 8 | 0.06 | 0.25 | 32 | 4 | 64 | 4 | 2 | MIC (KP13368; +PMBN): 4; MIC (AYE; +PMBN): 64; MIC (Ab17978; +PMBN, in µg/mL): 1
5 | CCn1cc(C(=O)O)c(=O)c2cc(F)c(N3CCNCC3)cc21 [NOR] | – | – | – | 64 µg/mL (≈ 200 µM) | – | – | – | – | – | – | – | – | – | – | –
